Reference: patent US5821240A, “Pyrimido[5,4]-dipyrimidines, pharmaceuticals containing them, their use and processes for the preparation thereof” (Dr. Karl Thomae GmbH, priority 1996, dated 1998)

Key:
F/L-HERc cells = test: Inhibition of IL-3-dependent proliferation of F/L-HERc cells; assay type: cell-based; conditions: Mus musculus, murine IL-3, 37° C., 48 hours
Excerpt: (§1) In this case, an interleukin-3 (IL-3)-dependent cell line of murine origin was used and was genetically modified in such a way that it expresses functional human EGF-R. Proliferation of these cells, which are called F/L-HERc, can therefore be stimulated either by murine IL-3 or by EGF (see von Ruden, T. et al. in EMBO J. 7, 2749-2756 (1988) and Pierce, J. H. et al. in Science 239, […] (1988)).
(§2) The starting material for the F/L-HERc cells was the cell line FDC-P1 whose preparation has been described by Dexter, T. M. et al. in J. Exp. Med. 152, 1036-1047 (1980). However, it is also possible as an alternative to use other growth factor-dependent cells (see, for example, Pierce, J. H. et al. in Science 239, 628-631 (1988), Shibuya, H. et al. in Cell 70, 57-67 (1992) and Alexander, W. S. et al. in EMBO J. 10, 3683-3691 (1991)). Recombinant retroviruses as described in von Ruden, T. et al., EMBO J. 7, 2749-2756 (1988) Were used for expression of the human EGF-R cDNA (see Ullrich, A. et al. in Nature 309, 418-425 (1984)), with the difference that the retroviral vector LXSN (see Miller, A. D. et al. in BioTechniques 7, 980-990 (1989)) was employed for expression of the EGF-R cDNA, and the line GP+E86 (see Markowitz, D. et al. in J. Virol. 62, 1120-1124 (1988)) was used as packaging cell.
(§3) F/L-HERc cells were cultivated in RPMI/1640 medium (BioWhittaker), supplemented with 10% fetal calf serum (FCS, Boehringer Mannheim), 2 mM glutamine (BioWhittaker), standard antibiotics and 20 ng/ml human EGF (Promega), at 37° C. and 5% CO2. To investigate the inhibitor activity of the compounds according to the invention, 1.5×10^4 cells were cultivated in the above medium (200 μl) per well in triplicates in 96-well plates, stimulating proliferation of the cells either with EGF (20 ng/ml) or with murine IL-3. The source used for IL-3 was culture supernatants from the cell line X63/0 mIL-3 (see Karasuyama, H. et al. in Eur. J. Immunol. 18, 97-104 (1988)). The compounds according to the invention were dissolved in 100% dimethyl sulphoxide (DMSO) and added in various dilutions to the cultures, with the maximum DMSO concentration being 1%. The cultures were incubated at 37° C. for 48 hours.
(§4) To determine the inhibitory activity of the compounds according to the invention, the relative cell count was measured in O.D. units using the Cell Titre 96™ AQueous Non-Radioactive Cell Proliferation Assay (Promega). The relative cell count was calculated as a percent of the control (F/L-HERc cells without inhibitor), and the concentration of active substance which inhibits the proliferation of the cells by 50% (IC50) was inferred.

[1] = system: human tumour cell line KB; test: Inhibition of EGF/TGF-alpha-stimulated KB cell proliferation ([3H]-thymidine incorporation); assay type: cell-based; conditions: TGF-alpha 10 ng/ml or EGF 20 ng/ml, serum-free, 60 hours then [3H]-thymidine 16-18 h
Procedure: KB cells (purchased from ATCC) were passaged in DMEM (BioWhittaker) in the presence of 10% FCS (Boehringer Mannheim), 50 μM beta-mercaptoethanol and standard antibiotics. The EGF-induced DNA synthesis was determined by measuring the incorporation of radioactively labelled thymidine as indicator of EGF/TGF-alpha-stimulated cell proliferation. To do this, the cells were washed twice and 1500 cells per well were plated out in a 96-well plate in 200 μl of IMDM (BioWhittaker) without serum in the presence of 50 μM beta-mercaptoethanol, standard antibiotics, TGF-alpha [10 ng/ml] or EGF [20 ng/ml] and of various concentrations of the substances according to the invention (triplicates, maximum DMSO concentration 1%, see proliferation t t with F/L-HERc cells). After 60 hours, [^3 H]-thymidine (0.1 μCi in 10 μl) was added for about 16-18 h.

[2] = system: F/L-HERc cells expressing human EGF-R; test: Inhibition of EGF-dependent proliferation of F/L-HERc cells; assay type: cell-based, murine cell line; human EGF-R; conditions: EGF 20 ng/ml, 37° C., 48 hours
Excerpt: as §1, §2, §3, §4

Row | SMILES | IC50 [1] | IC50 (F/L-HERc cells) | IC50 [2]
1 | COC(=O)N1CCC(Nc2ncc3ncnc(Nc4ccc(F)c(Cl)c4)c3n2)CC1 [1(8), 4-[(3-Chloro-4-fluorophenyl)amino]-6-[1-methoxycarbonyl-4-piperidinylamino]pyrimido[5,4-d]pyrimidine] | 100 to 1000 nM | > 10000 nM | 3 nM
2 | Nc1ccc(CNc2ncc3ncnc(Nc4ccc(F)c(Cl)c4)c3n2)cc1 [1(14), 4-[(3-Chloro-4-fluorophenyl)amino]-6-[4-aminobenzylamino]pyrimido[5,4-d]pyrimidine] |  | > 10000 nM | 28 nM
3 | Fc1ccc(Nc2ncnc3cnc(NC4CCCN(Cc5ccccc5)CC4)nc23)cc1Cl (stereo not drawn) [1(42), 4-[(3-Chloro-4-fluorophenyl)amino]-6-[1-benzyl-4-(1-azacycloheptyl)amino]pyrimido[5,4-d]pyrimidine] |  | > 1000 nM | > 100 nM
4 | OCc1cccc(Nc2ncnc3cnc(N[C@H]4CC[C@H](O)CC4)nc23)c1 [1(47), 4-[(3-Hydroxymethylphenyl)amino]-6-[trans-4-hydroxycyclohexylamino]pyrimido[5,4-d]pyrimidine] |  | > 1000 nM | > 100 nM
5 | NCCNc1ncc2ncnc(Nc3ccc(F)c(Cl)c3)c2n1 [1(6), 4-[(3-Chloro-4-fluorophenyl)amino]-6-[2-aminoethylamino]-pyrimido[5,4-d]pyrimidine] |  | > 10000 nM | 123 nM
6 | COC(CNc1ncc2ncnc(Nc3ccc(F)c(Cl)c3)c2n1)OC [1(25), 4-[(3-Chloro-4-fluorophenyl)amino]-6-[2,2-dimethoxyethylamino]pyrimido[5,4-d]pyrimidine] |  | > 20000 nM | 28 nM
7 | CC1CC(c2ccc(O)cc2)CN1c1ncc2ncnc(Nc3ccc(F)c(Cl)c3)c2n1 (stereo not drawn) [1(36), 4-[(3-Chloro-4-fluorophenyl)amino]-6-[4-(4-hydroxyphenyl)-2-methyl-1-pyrrolidinyl]pyrimido[5,4-d]pyrimidine] |  | > 1000 nM | 140 nM

The next lines start with results.

Row | IC50 [1] | SMILES | IC50 (F/L-HERc cells) | IC50 [2]
8 | 100 to 1000 nM | CCN(CC)CC(C)Nc1ncc2ncnc(Nc3ccc(F)c(Cl)c3)c2n1 (stereo not drawn) [1(21), 4-[(3-Chloro-4-fluorophenyl)amino]-6-[1-(N,N-diethylamino)-2-propylamino]pyrimido[5,4-d]pyrimidine] | > 1000 nM | 300 nM
9 | 100 to 1000 nM | CC(CN1CCCCC1)Nc1ncc2ncnc(Nc3ccc(F)c(Cl)c3)c2n1 (stereo not drawn) [1(20), 4-[(3-Chloro-4-fluorophenyl)amino]-6-[1-(1-piperidinyl)-2-propylamino]pyrimido[5,4-d]pyrimidine] | > 1000 nM | 225 nM
10 | 100 to 1000 nM | Nc1c(Cl)cc(Nc2ncnc3cnc(N[C@H]4CC[C@H](C(=O)N5CCOCC5)CC4)nc23)cc1Cl [1(17), 4-[(4-Amino-3,5-dichlorophenyl)amino]-6-[trans-4-(morpholinocarbonyl)cyclohexylamino]pyrimido[5,4-d]pyrimidine] | > 1000 nM | 1 nM
11 | 100 to 1000 nM | Nc1c(Cl)cc(Nc2ncnc3cnc(N[C@H]4CC[C@H](C(=O)N5CCCC5)CC4)nc23)cc1Cl [1(18), 4-[(4-Amino-3,5-dichlorophenyl)amino]-6-[trans-4-(pyrrolidinocarbonyl)cyclohexylamino]pyrimido[5,4-d]pyrimidine] | > 1000 nM | 3 nM
12 | 100 to 1000 nM | Fc1ccc(Nc2ncnc3cnc(N4CCC(C5CCNCC5)CC4)nc23)cc1Cl [1(19), 4-[(3-Chloro-4-fluorophenyl)amino]-6-[4-(4-piperidinyl)-1-piperidinyl]pyrimido[5,4-d]pyrimidine] | > 1000 nM | 83 nM
13 | 100 to 1000 nM | NCC1CCC(CNc2ncc3ncnc(Nc4ccc(F)c(Cl)c4)c3n2)CC1 (stereo not drawn) [1(22), 4-[(3-Chloro-4-fluorophenyl)amino]-6-[4-(aminomethyl)cyclohexylmethylamino]pyrimido[5,4-d]pyrimidine] | > 1000 nM | 43 nM
